Measured values as given in patent US8017612B2, “Piperazine compound and use thereof as a HCV polymerase inhibitor” (priority 2006, dated 2011).

What was measured:
[1] = molecular target: T1, HCV polymerase (NS5B) type 1b (Hepatitis C virus genotype 1b, UniProt P26663); assay: Assay of enzyme (HCV polymerase) inhibitory activity, type 1b enzyme; assay type: biochemical, HCV BK strain (type 1b); details: HCV polymerase inhibitory activity IC50, 1b, type 1b enzyme
T1 construct: a region encoding NS5B (J Virol 1991 March, 65(3), 1105-13, 544 amino acids after deletion of 47 amino acids on the C-terminal); 6xHis (C); made in house; host or cells: Escherichia coli
In short: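 NS5B from HCV BK strain (type 1b), C-terminal 47 aa deleted, C-terminal His6-tagged, E. coli-expressed, 0.5 μg/ml, with ~450 nt substrate RNA carrying the 3′ UTR (polyU, 3′X) at 5 μg/ml. Incubation 60 min at 25 °C with 50 μM ATP/GTP/CTP, 2 μM UTP plus [3H]UTP, pH 7.5 Tris.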

[2] = molecular target: T2, HCV polymerase (NS5B) type 1a (Hepatitis C virus genotype 1a, UniProt P26664); assay: Assay of enzyme (HCV polymerase) inhibitory activity, type 1a enzyme; assay type: biochemical, HCV type 1a (cloned from the blood of patients); details: HCV polymerase inhibitory activity IC50, 1a, type 1a enzyme
T2 construct: made in house; host or cells: Escherichia coli (by the 'similar method' of the 1b enzyme)
In short: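 Patient-derived type 1a NS5B (C-terminal 47-aa deletion, His-tagged, E. coli-expressed) at 1.5 μg/ml was reacted with 5 μg/ml 3′UTR-containing substrate RNA, 50 μM ATP/GTP/CTP, 2 μM UTP plus [3H]UTP, pH 7.5, 25° C for 60 min. TCA-precipitated RNA radioactivity was counted; IC50 from ± compound.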

SMILES | IC50 [1] [nM] | IC50 [2] [nM]
CCCc1ccc(CNC(=O)[C@H]2CN(c3cnc4cncc(C(=O)O)c4n3)CCN2S(=O)(=O)c2ccc(Cl)cc2)cc1 [Example 845, 2-[(R)-4-(4-chloro-benzenesulfonyl)-3-(4-propyl-benzylcarbamoyl)-piperazin-1-yl]-pyrido[3,4-b]pyrazine-8-carboxylic acid] | < 100 | < 100
CCCc1ccc(CNC(=O)[C@H]2CN(c3nc(C)c(C(=O)C(=O)OCC)s3)CCN2S(=O)(=O)c2ccc(OC(F)(F)F)cc2)cc1 [Example 846, {4-methyl-2-[(R)-3-(4-propyl-benzylcarbamoyl)-4-(4-trifluoromethoxy-benzenesulfonyl)-piperazin-1-yl]-thiazol-5-yl}-oxo-acetic acid ethyl ester] | < 100 | 100 to 1000
CCCc1ccc(CNC(=O)[C@H]2CN(c3nc(Cl)c(C(=O)O)s3)CCN2S(=O)(=O)c2ccc(OC(F)(F)F)cc2)cc1 [Example 847, 4-chloro-2-[(R)-3-(4-propyl-benzylcarbamoyl)-4-(4-trifluoromethoxy-benzenesulfonyl)-piperazin-1-yl]-thiazole-5-carboxylic acid] | < 100 | < 100
CCCc1ccc(CNC(=O)[C@H]2CN(c3nc(C)c(C(=O)C(=O)O)s3)CCN2S(=O)(=O)c2ccc(OC(F)(F)F)cc2)cc1 [Example 848, {4-methyl-2-[(R)-3-(4-propyl-benzylcarbamoyl)-4-(4-trifluoromethoxy-benzenesulfonyl)-piperazin-1-yl]-thiazol-5-yl}-oxo-acetic acid] | < 100 | < 100
O=C(NCC1CC1c1ccccc1)[C@H]1CN(c2cnc3cncnc3n2)CCN1S(=O)(=O)c1ccc(OC(F)(F)F)cc1 (stereo partly drawn) [Example 849, (R)-4-pteridin-7-yl-1-(4-trifluoromethoxy-benzenesulfonyl)-piperazine-2-carboxylic acid (2-phenyl-cyclopropylmethyl)-amide] | < 100 | 100 to 1000
O=C(NCc1ccc(OC(F)(F)F)cc1)[C@H]1CN(c2nc3cn[nH]c(=O)c3s2)CCN1S(=O)(=O)c1ccc(Cl)s1 [Example 850, (R)-1-(5-chloro-thiophene-2-sulfonyl)-4-(7-oxo-6,7-dihydro-thiazolo[4,5-d]pyridazin-2-yl)-piperazine-2-carboxylic acid 4-trifluoromethoxy-benzylamide] | < 100 | < 100
COCC(C)(C)c1ccc(CNC(=O)[C@H]2CN(c3nc4cn[nH]c(=O)c4s3)CCN2S(=O)(=O)c2ccc(OC(F)(F)F)cc2)cc1 [Example 851, (R)-4-(7-oxo-6,7-dihydro-thiazolo[4,5-d]pyridazin-2-yl)-1-(4-trifluoromethoxy-benzenesulfonyl)-piperazine-2-carboxylic acid 4-(2-methoxy-1,1-dimethyl-ethyl)-benzylamide] | < 100 | < 100
CCNC(=O)c1cnc(N2CCN(S(=O)(=O)c3ccc(OC(F)(F)F)cc3)[C@@H](C(=O)NCc3ccc(OC(F)(F)F)cc3)C2)cn1 [Example 852, (R)-4-(4-trifluoromethoxy-benzenesulfonyl)-3,4,5,6-tetrahydro-2H-[1,2′]bipyrazinyl-3,5′-dicarboxylic acid 5′-ethylamide 3-(4-trifluoromethoxy-benzylamide)] | < 100 | < 100
CC(C)(C)NC(=O)c1cnc(N2CCN(S(=O)(=O)c3ccc(OC(F)(F)F)cc3)[C@@H](C(=O)NCc3ccc(OC(F)(F)F)cc3)C2)cn1 [Example 853, (R)-4-(4-trifluoromethoxy-benzenesulfonyl)-3,4,5,6-tetrahydro-2H-[1,2′]bipyrazinyl-3,5′-dicarboxylic acid 5′-tert-butylamide 3-(4-trifluoromethoxy-benzylamide)] | 100 to 1000 | > 1000
CCc1ccc(S(=O)(=O)N2CCN(c3cnc4cncc(C(=O)O)c4n3)C[C@@H]2C(=O)NCc2ccc(C(C)(C)CC)cc2)cc1 [Example 854, 2-[(R)-3-[4-(1,1-dimethyl-propyl)-benzylcarbamoyl]-4-(4-ethyl-benzenesulfonyl)-piperazin-1-yl]-pyrido[3,4-b]pyrazine-8-carboxylic acid] | < 100 | < 100
CCCCc1ccc(CNC(=O)[C@H]2CN(c3cnc4cncc(C(=O)O)c4n3)CCN2S(=O)(=O)c2ccc(CC)cc2)cc1 [Example 855, 2-[(R)-3-(4-butyl-benzylcarbamoyl)-4-(4-ethyl-benzenesulfonyl)-piperazin-1-yl]-pyrido[3,4-b]pyrazine-8-carboxylic acid] | < 100 | < 100
CCCc1ccc(CNC(=O)[C@H]2CN(c3nc(C)c(C(O)C(=O)OCC)s3)CCN2S(=O)(=O)c2ccc(OC(F)(F)F)cc2)cc1 (stereo partly drawn) [Example 856, hydroxy-{4-methyl-2-[(R)-3-(4-propyl-benzylcarbamoyl)-4-(4-trifluoromethoxy-benzenesulfonyl)-piperazin-1-yl]-thiazol-5-yl}-acetic acid ethyl ester] | < 100 | 100 to 1000
CCCc1ccc(CNC(=O)[C@H]2CN(c3cnc4cncnc4n3)CCN2S(=O)(=O)c2ccc(OC(F)(F)F)cc2)s1 [Example 857, (R)-4-pteridin-7-yl-1-(4-trifluoromethoxy-benzenesulfonyl)-piperazine-2-carboxylic acid (5-propyl-thiophen-2-ylmethyl)-amide] | < 100 | < 100
CCC(C)(C)c1ccc(CNC(=O)[C@H]2CN(c3cnc4cncc(C(=O)O)c4n3)CCN2S(=O)(=O)c2ccc(Cl)s2)cc1 [Example 858, 2-{(R)-4-(5-chloro-thiophene-2-sulfonyl)-3-[4-(1,1-dimethyl-propyl)-benzylcarbamoyl]-piperazin-1-yl}-pyrido[3,4-b]pyrazine-8-carboxylic acid] | < 100 | < 100
CCCc1ccc(CNC(=O)[C@H]2CN(c3nc(C)c(C(=O)C(=O)NC)s3)CCN2S(=O)(=O)c2ccc(OC(F)(F)F)cc2)cc1 [Example 859, (R)-4-(4-methyl-5-methylaminooxalyl-thiazol-2-yl)-1-(4-trifluoromethoxy-benzenesulfonyl)-piperazine-2-carboxylic acid 4-propyl-benzylamide] | < 100 | 100 to 1000
CCCc1ccc(CNC(=O)[C@H]2CN(c3cnc4cncc(C(=O)O)c4n3)CCN2S(=O)(=O)c2ccc(Cl)s2)cc1 [Example 860, 2-[(R)-4-(5-chloro-thiophene-2-sulfonyl)-3-(4-propyl-benzylcarbamoyl)-piperazin-1-yl]-pyrido[3,4-b]pyrazine-8-carboxylic acid] | < 100 | < 100
O=C(O)c1cncc2ncc(N3CCN(S(=O)(=O)c4ccc(Cl)s4)[C@@H](C(=O)NCc4ccc(OC(F)(F)F)cc4)C3)nc12 [Example 861, 2-[(R)-4-(5-chloro-thiophene-2-sulfonyl)-3-(4-trifluoromethoxy-benzylcarbamoyl)-piperazin-1-yl]-pyrido[3,4-b]pyrazine-8-carboxylic acid] | < 100 | < 100
CCCc1ccc(CNC(=O)[C@H]2CN(c3nc4c(C(=O)OCC)n[nH]c(=O)c4s3)CCN2S(=O)(=O)c2ccc(CC)cc2)cc1 [Example 862, 2-[(R)-4-(4-ethyl-benzenesulfonyl)-3-(4-propyl-benzylcarbamoyl)-piperazin-1-yl]-7-oxo-6,7-dihydro-thiazolo[4,5-d]pyridazine-4-carboxylic acid ethyl ester] | < 100 | < 100
CCCc1ccc(CNC(=O)[C@H]2CN(c3nc4c(C(=O)O)n[nH]c(=O)c4s3)CCN2S(=O)(=O)c2ccc(CC)cc2)cc1 [Example 863, 2-[(R)-4-(4-ethyl-benzenesulfonyl)-3-(4-propyl-benzylcarbamoyl)-piperazin-1-yl]-7-oxo-6,7-dihydro-thiazolo[4,5-d]pyridazine-4-carboxylic acid] | < 100 | < 100
O=C(NCc1ccc(OC(F)(F)F)cc1)[C@H]1CN(c2nc3cn[nH]c(=O)c3s2)CCN1S(=O)(=O)c1ccc(F)cc1 [Example 864, (R)-1-(4-fluoro-benzenesulfonyl)-4-(7-oxo-6,7-dihydro-thiazolo[4,5-d]pyridazin-2-yl)-piperazine-2-carboxylic acid 4-trifluoromethoxy-benzylamide] | < 100 | 100 to 1000
CNC(=O)c1cncc2ncc(N3CCN(S(=O)(=O)c4ccc(OC(F)(F)F)cc4)[C@@H](C(=O)NCc4ccc(OC(F)(F)F)cc4)C3)nc12 [Example 865, 2-[(R)-4-(4-trifluoromethoxy-benzenesulfonyl)-3-(4-trifluoromethoxy-benzylcarbamoyl)-piperazin-1-yl]-pyrido[3,4-b]pyrazine-8-carboxylic acid methylamide] | < 100 | < 100
CN(C)C(=O)c1cncc2ncc(N3CCN(S(=O)(=O)c4ccc(OC(F)(F)F)cc4)[C@@H](C(=O)NCc4ccc(OC(F)(F)F)cc4)C3)nc12 [Example 866, 2-[(R)-4-(4-trifluoromethoxy-benzenesulfonyl)-3-(4-trifluoromethoxy-benzylcarbamoyl)-piperazin-1-yl]-pyrido[3,4-b]pyrazine-8-carboxylic acid dimethylamide] | < 100 | < 100
